In PubChem BioAssay AID1996:
Values after ≈ are worked out from the molar mass of the structure shown.

Conditions: buffer; pH 7.4; 200.0 µM

| Structure (SMILES) | solubility kinetic [µg/mL] |
| --- | --- |
| CC(=O)OCC[N+](C)(C)C.[O-][Cl+3]([O-])([O-])[O-] | > 36.8 |
| CCOc1ccc(C(=O)NNC(=O)CN2C(=O)C3CC=CCC3C2=O)cc1OC (stereo not given) | > 60.2 |
| Cn1c(SCC(=O)NC2CCCC2)nnc1-c1ccccn1 | > 47.6 |
| O=C1c2cccc3c([N+](=O)[O-])ccc(c23)C(=O)N1CCc1ccccn1 | 0.4 (≈ 1.15 µM) |
| Cc1cc(C)nc(NC(=O)c2cccc(Br)c2)n1 | 39.8 (≈ 130 µM) |
| CCOc1ccc(NC(=O)CCC(=O)c2ccc(OC)cc2)cc1 | 3 (≈ 9.16 µM) |
| COc1ccc(CNC(=O)CN(c2ccc(C(C)=O)cc2)S(=O)(=O)c2ccc(C)cc2)cc1OC | 4.1 (≈ 8.26 µM) |
| COc1ccc(C2C(C(C)=O)=C(C)Nc3ncnn32)c(OC)c1OC (stereo not given) | > 51.7 |
| Nc1c(N(CCO)C(=O)C2CCCC2)c(=O)[nH]c(=O)n1Cc1ccccc1 | > 55.9 |
| CN(CC1COc2ccccc2O1)C(=O)c1ccc(N(C)C)cc1 (stereo not given) | > 49 |
| COc1cccc(CNC(C)C(=O)Nc2ccc(S(=O)(=O)N3CCCC3)cc2)c1 (stereo not given) | > 62.6 |
| S=C(Nc1cccc(Cl)c1Cl)N1CCCC1 | 15.7 (≈ 57 µM) |
| Cc1ccccc1COC(=O)c1cc([N+](=O)[O-])ccc1N1CCOCC1 | 5.8 (≈ 16.3 µM) |
| Cn1c(C(=O)N2CCN(c3ccc(F)cc3)CC2)cc2ccccc21 | 2.8 (≈ 8.3 µM) |
| COC(=O)C1SCCN1S(=O)(=O)c1ccc(Cl)cc1 (stereo not given) | > 48.3 |
| CN(C)CCn1c(=S)[nH]c2ncccc2c1=O | 35.8 (≈ 143 µM) |
| COc1ccc(C(=O)NCC(C)(C)CNC(=O)c2ccc(OC)cc2)cc1 | 11 (≈ 29.7 µM) |
| Cc1cc(C)c2ccc(/C=N/O)nc2c1O | 2.8 (≈ 12.9 µM) |
| COc1ccc(NS(=O)(=O)c2cn(C)c(=O)n(C)c2=O)cc1 | > 48.8 |
| COc1ccc(NC(=O)c2cc(-c3ccc(C)cc3)on2)cc1OC | < 0.4 |

| Structure (SMILES) | solubility kinetic [µg/mL] |
| --- | --- |
| Cc1ccc(OCC(=O)N2c3ccccc3CC2C)c([N+](=O)[O-])n1 (stereo not given) | 21.3 (≈ 65.1 µM) |
| CN(C)C(=O)Nc1ccccc1 | > 24.6 |
| CCCNC(=O)c1ccc(C)c(NC(=O)C2=C(C)OCCS2)c1 | > 50.2 |
| Cc1cn2c(=O)c(C(=O)N3CCN(c4ccccc4)CC3)cnc2s1 | > 53.2 |
| CCN1CCN(S(=O)(=O)c2ccc(OC)cc2)CC1 | 36.8 (≈ 129 µM) |
| COCCc1nnc(NC(=O)C(C)C)s1 | > 34.4 |
| O=S(=O)(Cc1noc(-c2ccc(OC(F)(F)F)cc2)n1)c1ccc(F)cc1 | < 0.4 |
| Cc1cc(C(=O)N2CCC(C(=O)O)CC2)c(C(F)(F)F)o1 | > 45.8 |
| Cc1ccc(CNC(=S)NC2CCCCC2)cc1 | 32.3 (≈ 123 µM) |
| COC(=O)c1sccc1NC(=O)CSCCc1ccccn1 | > 50.5 |
| Cc1ccc(NC(=O)CCc2ccc(S(=O)(=O)N3CCOCC3)cc2)c(O)c1 | 44.6 (≈ 110 µM) |
| CN(C(=O)COC(=O)CCC(=O)c1ccc(F)cc1)C1CCCCC1 | > 52.4 |
| N#Cc1c(-c2ccccc2)nc2n1CCS2 | 7.3 (≈ 32.1 µM) |
| Cc1cc(C)c(S(=O)(=O)Nc2cc(C)on2)c(C)c1 | 37.2 (≈ 133 µM) |
| CC1(C)Nc2ccccc2C(=O)N1c1ccc(Br)cc1 | 12.1 (≈ 36.5 µM) |
| Cc1ccc(O)c(NC(=O)c2cc(-c3ccc(F)cc3)on2)c1 | < 0.3 |
| Cc1cccc(C)c1NC(=O)CN1C(=O)C2CC=CCC2C1=O (stereo not given) | > 46.9 |
| O=c1[nH]c(-c2ccc(O)cc2)nc2scc(-c3cccs3)c12 | 0.5 (≈ 1.53 µM) |
| O=C(Cc1ccccc1[N+](=O)[O-])N1CCOCC1 | > 37.5 |

Further lines, results first:

| solubility kinetic [µg/mL] | Structure (SMILES) |
| --- | --- |
| < 0.2 | Cc1ccc(C(C)C)c(OC/C(O)=C(\C#N)c2nc3ccccc3[nH]2)c1 |
| 47.7 | Cl.OC(CNCc1ccc(Cl)c(Cl)c1)c1ccccc1 (stereo not given) |
| > 48.5 | Cc1ccn2cc(-c3cccc(NC(=O)CCC(=O)O)c3)nc2c1 |
| > 58.5 | CCc1ccccc1NC(=O)CN(C)C(=O)COC(=O)c1cccnc1Cl |
| > 43.6 | COC(=O)c1cnc(SCC(=O)c2ccccc2)n1C |
| > 48.4 | O=C(CNC(=O)c1ccccc1Cl)NCCc1cccs1 |
| 1.8 (≈ 5.69 µM) | O=C(/C=C/c1ccc(F)cc1)NC(=S)Nc1ccccc1O |
| > 49.6 | CCc1nnc(NC(=O)C2CC(=O)N(Cc3ccccc3)C2)s1 (stereo not given) |
| 3.8 (≈ 12.8 µM) | Cc1cccc2cc(CNCc3ccccc3)c(Cl)nc12 |
| 2.9 (≈ 9.66 µM) | Cc1ccc(NC(=O)CCNC(=O)c2ccccc2)cc1F |
| > 34.4 | O=C1CCCC(O)=C1C=NCc1ccccc1 |
| 1 (≈ 3.05 µM) | Cc1cccc(-c2nc(Nc3cccc(O)c3)c3ccccc3n2)c1 |
| > 44.9 | O=C(O)CCCC(=O)Nc1ccccc1Oc1ccccc1 |
| 11.1 (≈ 25.3 µM) | CN(c1ccccc1)S(=O)(=O)c1cccc(C(=O)OCC(=O)NCc2ccccc2)c1 |
| 56.5 (≈ 147 µM) | COc1ccccc1C(=O)COC(=O)C(NC(=O)Cc1ccccc1)C(C)C (stereo not given) |
| > 41 | O=C1CSC(c2cccc(F)c2)N1c1ccccc1 (stereo not given) |
| > 44.5 | OCC1(Cc2ccccc2)CCN(Cc2ccccn2)CC1 |
| > 36.8 | CSc1ncc(C(=O)Nc2ccccc2)cn1 |
| 1.8 (≈ 5.71 µM) | NC(=O)c1oc2ccccc2c1NC(=O)c1ccc([N+](=O)[O-])o1 |
| 3.3 (≈ 11.4 µM) | CCn1c(/C=C/c2ccccc2C)nc2ccccc2c1=O |
| > 44.2 | CC(=O)Nc1ccc2c(c1)N(C(C)=O)c1ccccc1CC2 |
